Assay results from article PMC6265310, “Purification, Characterization and in vitro Evaluation of Polymyxin A From Paenibacillus dendritiformis: An Underexplored Member of the Polymyxin Family” (Frontiers in Microbiology, 2018).
In brackets after ≈: the same amount, converted by molar mass. Where a SMILES comes first, the peptide text is derived from it. Bridges are numbered along the chain shown (N, C = ends). [ ]: non-standard residue; d: D form. The star is where a group is joined. Heptanoyl(6-Me) = CC(C)CCCCC(=O)*; dDab = NCC[C@@H](N)C(=O)O; Dab = NCC[C@H](N)C(=O)O

Key:
P. aeruginosa ATCC 27853 = assay: Time-kill kinetics; format: cell-based; settings: P. aeruginosa ATCC 27853, 2xMIC
E. coli ATCC 25922 = assay: NPN uptake assay, outer membrane permeabilization; format: cell-based; settings: E. coli ATCC 25922, 10 and 20 μg/ml, 1 h, compared with polymyxin B
[1] = tested on: human embryonic kidney cell line (HEK293 ATCC CRL-1573); format: cell-based
Method: (§1) 3-(4,5-dimethylthiazol-2-yl)-2,5-diphenyltetrazolium bromide (MTT) assay was employed to examine the cytotoxicity against human leukemic monocyte cell line (THP-1 ATCC TIB-202) and human embryonic kidney cell line (HEK293 ATCC CRL-1573) as explained by [Kaur et al. (2017)]. Toxicity of both compounds was compared with polymyxin B and colistin at concentrations ranging from 62.5 to1000 μg/ml.

[2] = tested on: human leukemic monocyte cell line (THP-1 ATCC TIB-202); format: cell-based
Method: as §1

[3] = tested on: clinical MDR isolates (E. coli, K. pneumoniae, A. baumanii, P. aeruginosa); format: cell-based; settings: in 25 of 31 clinical isolates
[4] = tested on: Acinetobacter baumannii ATCC 19606; settings: ATCC 19606
[5] = tested on: Escherichia coli ATCC 25922; settings: ATCC 25922
[6] = tested on: Escherichia coli ATCC 35218; settings: ATCC 35218
[7] = tested on: Klebsiella pneumoniae ATCC BAA1706; settings: ATCC BAA1706
[8] = tested on: Klebsiella pneumoniae ATCC 700603; settings: ATCC 700603
[9] = tested on: Klebsiella pneumoniae ATCC 29665; settings: ATCC 29665
[10] = tested on: Klebsiella pneumoniae ATCC- BAA 2146; settings: BAA 2146
[11] = tested on: Pseudomonas aeruginosa ATCC 27853; settings: ATCC 27853
[12] = tested on: Vibrio parahaemolyticus ATCC17802
[13] = tested on: Vibrio cholerae MTCC 3906
[14] = tested on: Bacillus subtilis ATCC 6633; settings: ATCC 6633
[15] = tested on: Staphylococcus aureus ATCC 25923; settings: ATCC 25923
[16] = tested on: Enterococcus faecalis ATCC 51299; settings: ATCC 51299
K. Pneumoniae GMCH 16 = settings: GMCH 16
K. Pneumoniae GMCH10 = settings: GMCH10
K. Pneumoniae 1573 = settings: 1573
K. Pneumoniae GMCH13 = settings: GMCH13
K. Pneumoniae GMCH12 = settings: GMCH12
K. Pneumoniae 1428 = settings: 1428
K. Pneumoniae GMCH04 = settings: GMCH04
K. Pneumoniae GMCH11 = settings: GMCH11
K. Pneumoniae 827 = settings: 827
K. Pneumoniae B8 = settings: B8
P. aeruginosa GMCH06 = settings: GMCH06
P. aeruginosa PA1 = settings: PA1
P. aeruginosa PA2 = settings: PA2
P. aeruginosa PA3 = settings: PA3
P. aeruginosa PA4 = settings: PA4
P. aeruginosa PA5 = settings: PA5
P. aeruginosa PA6 = settings: PA6
E. coli 7534 = settings: 7534
E. coli 9062 = settings: 9062
E. coli 7210 = settings: 7210
E. coli 14363 = settings: 14363
E. coli 7932 = settings: 7932
E. coli 3185 = settings: 3185
E. coli 14504 = settings: 14504
E. coli 13425 = settings: 13425
E. coli 14084 = settings: 14084
A. baumannii GMCH 14 = settings: GMCH 14
A. baumannii GMCH18 = settings: GMCH18
A. baumannii GMCH05 = settings: GMCH05
A. baumannii AB1 = settings: AB1
A. baumannii AB2 = settings: AB2

`CC(C)CCCCC(=O)N[C@@H](CCN)C(=O)N[C@H](C(=O)N[C@H](CCN)C(=O)N[C@H]1CCNC(=O)[C@H]([C@@H](C)O)NC(=O)[C@H](CCN)NC(=O)[C@H](CCN)NC(=O)[C@H]([C@@H](C)O)NC(=O)[C@@H](CC(C)C)NC(=O)[C@H](CCN)NC1=O)[C@@H](C)O` [P1, polymyxin A2] ({Heptanoyl(6-Me)}-[Dab]T[dDab][Dab][Dab][dL]T[Dab][Dab]T; lactam 4-C) was tested, and the time to kill (P. aeruginosa ATCC 27853) was 4 h, the “NPN uptake (fluorescence intensity)” value (E. coli ATCC 25922) was “slightly higher NPN uptake” and the IC50 [1] was greater than 1000 µg/mL. The IC50 [2] was “approximately 1000 μg/ml”, the “fold less MIC than the other polymyxins” value [3] was 2–4 fold and the MIC [4] was 0.5 µg/mL (≈ 0.437 µM). The MIC [5] was 1 µg/mL (≈ 0.875 µM), the MIC [6] was 0.25 µg/mL (≈ 0.219 µM) and the MIC [7] was 0.5 µg/mL (≈ 0.437 µM). The MIC [8] was 1 µg/mL (≈ 0.875 µM), the MIC [9] was 0.5 µg/mL (≈ 0.437 µM) and the MIC [10] was 0.5 µg/mL (≈ 0.437 µM). For the same compound, the MIC [11] was 0.5 µg/mL (≈ 0.437 µM), the MIC [12] was 1 µg/mL (≈ 0.875 µM) and the MIC [13] was greater than 16 µg/mL. It also gave an MIC [14] of 16 µg/mL (≈ 14 µM), an MIC [15] greater than 16 µg/mL and an MIC [16] greater than 16 µg/mL. For the same compound, the MIC (K. Pneumoniae GMCH 16) was 0.5 µg/mL (≈ 0.437 µM), the MIC (K. Pneumoniae GMCH10) was 1 µg/mL (≈ 0.875 µM) and the MIC (K. Pneumoniae 1573) was 0.5 µg/mL (≈ 0.437 µM). It also gave an MIC (K. Pneumoniae GMCH13) of 0.5 µg/mL (≈ 0.437 µM), an MIC (K. Pneumoniae GMCH12) of 0.5 µg/mL (≈ 0.437 µM) and an MIC (K. Pneumoniae 1428) of 1 µg/mL (≈ 0.875 µM). It also gave an MIC (K. Pneumoniae GMCH04) of 0.25 µg/mL (≈ 0.219 µM), an MIC (K. Pneumoniae GMCH11) of 1 µg/mL (≈ 0.875 µM) and an MIC (K. Pneumoniae 827) of 0.5 µg/mL (≈ 0.437 µM). The MIC (K. Pneumoniae B8) was 0.5 µg/mL (≈ 0.437 µM), the MIC (P. aeruginosa GMCH06) was 0.5 µg/mL (≈ 0.437 µM) and the MIC (P. aeruginosa PA1) was 1 µg/mL (≈ 0.875 µM). The MIC (P. aeruginosa PA2) was 1 µg/mL (≈ 0.875 µM), the MIC (P. aeruginosa PA3) was 1 µg/mL (≈ 0.875 µM) and the MIC (P. aeruginosa PA4) was 1 µg/mL (≈ 0.875 µM). It also gave an MIC (P. aeruginosa PA5) of 1 µg/mL (≈ 0.875 µM), an MIC (P. aeruginosa PA6) of 1 µg/mL (≈ 0.875 µM) and an MIC (E. coli 7534) of 0.25 µg/mL (≈ 0.219 µM). The MIC (E. coli 9062) was 0.25 µg/mL (≈ 0.219 µM), the MIC (E. coli 7210) was 0.25 µg/mL (≈ 0.219 µM) and the MIC (E. coli 14363) was 0.25 µg/mL (≈ 0.219 µM). For the same compound, the MIC (E. coli 7932) was 0.25 µg/mL (≈ 0.219 µM), the MIC (E. coli 3185) was 0.25 µg/mL (≈ 0.219 µM) and the MIC (E. coli 14504) was 0.25 µg/mL (≈ 0.219 µM). It also gave an MIC (E. coli 13425) of 0.25 µg/mL (≈ 0.219 µM), an MIC (E. coli 14084) of 0.25 µg/mL (≈ 0.219 µM) and an MIC (A. baumannii GMCH 14) of 0.5 µg/mL (≈ 0.437 µM). It also gave an MIC (A. baumannii GMCH18) of 0.25 µg/mL (≈ 0.219 µM), an MIC (A. baumannii GMCH05) of 1 µg/mL (≈ 0.875 µM) and an MIC (A. baumannii AB1) of 0.5 µg/mL (≈ 0.437 µM). The MIC (A. baumannii AB2) was 1 µg/mL (≈ 0.875 µM).
